This is an account of results in US9028858B2 (Coloplast A/S, priority 2003, dated 2015).

One data set relates to seven bacteria. Kind of data set: Antibacterial effect / antibacterial index of silver compounds. The conditions noted are these: for Antibacterial index: index between 0 and 5.05; for antibacterial effect: pH 5.5, 7 and 8.5, 160 mM NaCl, 6% PEG 2000, excess undissolved salt (precipitate) present. The class given is cell-based. The method, then:
The solutions further contained 160 mM NaCl and 6% PEG 2000, and all solutions were sterilized with 50 kGy β- or γ-irradiation. β-Irradiation generally gave a better antibacterial effect and a smaller degree of coloration of the products than γ-irradiation, so β-irradiation was the preferred sterilization method. The silver compounds only worked when excess undissolved salt was allowed in the packaging, that is, they had no antibacterial effect when they were decanted from their precipitate.
The antibacterial effect of each compound was scored on a scale from 0 (no effect) to 3 (excellent effect) for each of the seven bacteria. The antibacterial index was defined as 5/12 multiplied by the sum of the square roots of the scores of each of the seven bacteria. Thus, the antibacterial index was a rational number between 0 and 5.05.

A short description of data set [1]: Appearance index of catheter and swelling medium after sterilization. The data set is classed as physicochemical. The settings on record: 0=totally unacceptable, 5=perfect. An excerpt: The appearance index was a weighted average of the subjective acceptability after sterilization of catheters packed in one single compartment with catheter and swelling medium (on a scale from 0 to 5: 0=totally unacceptable, e.g. by strong color or major precipitation; 5=perfect, e.g. no coloration, no precipitate) of the hydrophilic catheter (weighted 60%) and the swelling medium (weighted 40%).

Data set [2] in a line: Various stabilizers: degradation of H2O2 at pH 4, 5.5 and 7. The settings on record: with stabilizer, 25 mM citric acid, approx. 1% H2O2. The method, then:
Therefore the investigation of the influence of the pH-value on the stability in our system was included in the study.
24 different kinds of swelling media containing different stabilizers (one without stabilizer) and 3 different pH-values (pH 4, 5.5 and 7) were prepared. […] The concentration of sodium chloride in each of these three swelling media was 0.7% (w/w). Sodium chloride was tested because it could be used as an osmolality increasing agent. […] Two different kinds of material for the stick-pack were used, one with “peel” and one with “non-peel”. […] The irradiation dose was 2*26 kGy.
The stick-pack with “peel” was a laminated material consisting of PETP (12 μm), aluminium (9 μm) and polyethylene peel (polyethylene+10% polybutylene) (70 μm). […] The stick-packs were made out of a stamped area of 13×35 mm that was welded in the longitudinal direction by 1×3 units on a welder. It was welded by 2×2.2 units across in one end of the stick-pack, and in the other end by 4.0 bar, 130° C. and 3.5 s (breakable seal).
The stick-packs were stored for stability testing at 23° C. and 40° C. Samples were taken out after irradiation and after 2 and 4 weeks at 40° C. and 8 and 16 weeks at 23° C.

For data set [3] the following is noted: for Degradation rate of 1% H2O2: Rate constant (k) (%/day) / Degradation rate of 1% H2O2: log k (%/day): 500 µg/mL DETAPMP, 10 mM citrate, 0.7% NaCl, pH 4. From the text: The pH-value of the solution was adjusted to pH 4 with 4 M NaOH and 1 M HCl.
Seven swelling media were produced.
The irradiation dose was 2*26 kGy.
The stick-pack with “peel” was a laminated material consisting of PETP (12 μm), aluminium (9 μm) and polyethylene peel (polyethylene+10% polybutylene) (70 μm). The stick-packs were made out of a stamped area of 13×35 mm that was welded in the longitudinal direction by 1×3 units on a welder. It was welded by 2×2.2 units across in one end of the stick-pack, and in the other end by 4.0 bar, 130° C. and 3.5 s (breakable seal).

The format of data set [4] is physicochemical. The procedure: When the results were analyzed and further tests were carried out to confirm the results, it appeared that the effects might be third-order interactions or higher. That is, the effects came from mixtures of 3, 5, 7 or any other odd number of compounds but apparently not from main effects or 2-factor interactions. Thus, a large synergistic action between the compounds appeared to be present.

Another data set relates to Pseudomonas aeruginosa. Kind of data set: Coated catheter on inoculated agar plate, inhibition zone. The class given is cell-based. The conditions noted are these: 1-5 g/L in 50 mM citrate (pH 5.5), 160 mM NaCl and 6% PEG 2000. The method, then: (§1) A series of antibacterial agents (See Table 12.1) were swelled into a hydrophilic coating on urinary catheters. The catheters were stored about 0, 3, 6 and 12 weeks at 25° C., 40° C., and 60° C. Agar plates were inoculated with various bacterial strains clinically isolated from infected human urine, and added the coated catheter on top of the surface of the agar. The agar plates were incubated for 18 hours at 37° C., and visually tested for presence or absence of an inhibition zone.
(§2) Catheter sections with a hydrophilic coating were swelled with a solution of the anti-microbial agents and were placed on agar plates inoculated with bacteria (clinical isolates, − and + denotes […], respectively): Proteus mirabilis (−), Pseudomonas aeruginosa (−), E. coli (−), Providencia Stuartii (−), Staphylococcus aureus (+), Enterococcus faecalis (+) and Klebsielia (−).
(§3) A highly fractionated factorial design (2^15-10IV-design) was constructed by Design Expert software (version 6.0.6) and used to screen 32 of the 2^15=32768 possible combinations, where each compound was either absent or present in a relevant concentration. […] All samples were β-sterilized with a dose of 50 kGy. The constituents and concentrations of the 32 solutions are described in Table 12.1:
(§4) Many of the 32 mixtures had powerful action against several of the 7 bacteria (0=no effect; 3=excellent effect), see Table 12.2 (sorted by decreasing antibacterial effect).

A further data set relates to Providencia Stuartii. The data set is described as above. The class given is cell-based. The conditions noted are these: 1-5 g/L in 50 mM citrate (pH 5.5), 160 mM NaCl and 6% PEG 2000. The method, then:
as §1, §2, §3, §4

For the next data set, the system named is Enterococcus faecalis. Described as above. The data set is classed as cell-based. The conditions noted are these: 1-5 g/L in 50 mM citrate (pH 5.5), 160 mM NaCl and 6% PEG 2000. The procedure:
as §1, §2, §3, §4

Another data set concerns Staphylococcus aureus. Described as above. The class given is cell-based. The settings on record: 1-5 g/L in 50 mM citrate (pH 5.5), 160 mM NaCl and 6% PEG 2000. The method, then:
as §1, §2, §3, §4

The next data set concerns Proteus mirabilis. Described as above. The data set is classed as cell-based. The settings on record: 1-5 g/L in 50 mM citrate (pH 5.5), 160 mM NaCl and 6% PEG 2000. The method, then: as §1, §2, §3, §4
Another data set has as its system E. coli. The description is as above. The conditions noted are these: 1-5 g/L in 50 mM citrate (pH 5.5), 160 mM NaCl and 6% PEG 2000. The data set is classed as cell-based. The method, then: as §1, §2, §3, §4
The subject of the next data set is Klebsiella. Described as above. The data set is classed as cell-based. The settings on record: 1-5 g/L in 50 mM citrate (pH 5.5), 160 mM NaCl and 6% PEG 2000. The method, then: as §1, §2, §3, §4

Where two headings read alike, the source gives them in different places.

`O=C1CNC(=O)[N-]1.[Ag+]` [Hydantoinate, silver hydantoinate]: the Antibacterial index was found to be 2.3 in the data set with seven bacteria (pH 5.5, 0.01% H2O2 added); 2.7 in the data set with seven bacteria (pH 5.5, no H2O2 added); 3.3 in the data set with seven bacteria (pH 7, no H2O2 added); 3.2 with seven bacteria (pH 8.5, no H2O2 added). Also, in the data set on seven bacteria, the antibacterial effect entry is on record as “moderate to excellent”. Besides, the Appearance index is reported as 3.6 in data set [1] (pH 5.5, 0.01% H2O2 added); 4 in data set [1] (pH 5.5, no H2O2 added); 3.4 in [1] (pH 7, no H2O2 added); 2.8 in data set [1] (pH 8.5, no H2O2 added).
As for `CC(O)(P(=O)(O)O)P(=O)(O)O` [HEDP, 1-Hydroxyethane-1,1 diphosphonic acid], the “calculated amount of degraded H2O2 after 2 years of storage at 23° C.” value in data set [2] (pH 4) was 65.4%; in data set [2] (pH 5.5), 150.0%; in data set [2] (pH 7) it was 351.1%.
For the molecule `O=P(O)(O)CN(CCN(CP(=O)(O)O)CP(=O)(O)O)CCN(CP(=O)(O)O)CP(=O)(O)O` [DETAPMP, Diethylenetriaminepenta(methylenephosphonic)acid], the “Concentration of H2O2 (%) after storage at 40° C.” value (shortened to “Concentration of H2O2 (%)”) in [3] (50 mg/L DETAPMP, 0 days) was found to be 0.92%; in [3] (50 mg/L DETAPMP, 14 days), 0.89%; in data set [3] (50 mg/L DETAPMP, 25 days) it was 0.89%; in [3] (100 mg/L DETAPMP, 0 days), 0.91%; in data set [3] (100 mg/L DETAPMP, 14 days), 0.89%; in data set [3] (100 mg/L DETAPMP, 25 days) it was 0.88%. Besides, the “Concentration of H2O2 (%)” value in data set [3] (150 mg/L DETAPMP, 0 days) worked out at 0.91%; in data set [3] (150 mg/L DETAPMP, 14 days), 0.90%; in [3] (150 mg/L DETAPMP, 25 days) it was 0.89%; in [3] (200 mg/L DETAPMP, 0 days) it was 0.91%; in [3] (200 mg/L DETAPMP, 14 days), 0.89%; in data set [3] (200 mg/L DETAPMP, 25 days), 0.89%. For the same molecule, the “Concentration of H2O2 (%)” value is listed as 0.90% in data set [3] (250 mg/L DETAPMP, 0 days); 0.89% in data set [3] (250 mg/L DETAPMP, 14 days); 0.89% in data set [3] (250 mg/L DETAPMP, 25 days); 0.91% in [3] (350 mg/L DETAPMP, 0 days); 0.89% in data set [3] (350 mg/L DETAPMP, 14 days); 0.89% in [3] (350 mg/L DETAPMP, 25 days). Further, the “Concentration of H2O2 (%)” value in data set [3] (500 mg/L DETAPMP, 0 days) was 0.91%; in [3] (500 mg/L DETAPMP, 14 days) it was 0.89%; in data set [3] (500 mg/L DETAPMP, 25 days), 0.89%. Further, the “Degradation rate of 1% H2O2: Rate constant (k) (%/day)” value is on record as 0.0932 %/day in data set [3] (40° C.), 0.1722 %/day in [3] (50° C.) and 0.3691 %/day in data set [3] (60° C.). The results for the “Degradation rate of 1% H2O2: log k (%/day)” value in data set [3] (40° C.), in data set [3] (50° C.) and in data set [3] (60° C.) were −1.031 %/day, −0.764 %/day and −0.433 %/day, respectively. Further, in [3] (Arrhenius plot 40-60° C., DETAPMP at pH 4 and 10 mM citrate), the “activation energy for the degradation of H2O2” value stood at 14.2 kcal/mol. Also, the “Q10 of H2O2 degradation rate” value in [3] (DETAPMP at pH 4 and 10 mM citrate) is listed as “≈ 2”.
Take `[Cl][Ag]` [silver chloride]: in data set [4], the solubility entry is on record as “sparingly soluble”.
As to polymeric silver imidazolate, the Antibacterial index in the data set on seven bacteria (pH 5.5, 0.01% H2O2 added) turned out to be 2.7; with seven bacteria (pH 5.5, no H2O2 added) it was 0.8; in the data set on seven bacteria (pH 7, no H2O2 added), 3.2; in the data set on seven bacteria (pH 8.5, no H2O2 added), 2.8. Moreover, the antibacterial effect entry in the data set with seven bacteria was “moderate to excellent”. Moreover, the Appearance index in [1] (pH 5.5, 0.01% H2O2 added) is reported as 3; in data set [1] (pH 5.5, no H2O2 added) it was 3.4; in [1] (pH 7, no H2O2 added), 4.2; in data set [1] (pH 8.5, no H2O2 added) it was 3.2.
On to `[H]/N=C(\N/C(=N/[H])NCCCCCCNC(=N)NC(=N)Nc1ccc(Cl)cc1)Nc1ccc(Cl)cc1` [Chlorhexidine, chlorhexidine digluconate], for which, in data set [4], the solubility result was “sparingly soluble”.
For `CC1(C)NC(=O)[N-]C1=O.[Ag+]` [5,5-DMH, silver 5,5-dimethylhydantoinate], the Antibacterial index in the data set on seven bacteria (pH 5.5, 0.01% H2O2 added) is listed as 1.4; with seven bacteria (pH 5.5, no H2O2 added), 1.8; with seven bacteria (pH 7, no H2O2 added) it was 3.4; in the data set on seven bacteria (pH 8.5, no H2O2 added), 1.7. The antibacterial effect result in the data set with seven bacteria is “moderate to excellent”. Moreover, the Appearance index came out at 5 in data set [1] (pH 5.5, 0.01% H2O2 added); 2.8 in [1] (pH 5.5, no H2O2 added); 3.4 in data set [1] (pH 7, no H2O2 added); 2.2 in data set [1] (pH 8.5, no H2O2 added).
On to benzalkonium chloride, for which the “antibacterial effect on P. aeruginosa” value in the data set on Pseudomonas aeruginosa was “moderate to high”. For the same molecule, the “antibacterial effect on P. stuartii” value in the data set with Providencia Stuartii was “moderate to high”. Besides, the “antibacterial effect on E. faecalis” value in the data set with Enterococcus faecalis was “moderate to high”. Also, in the data set with Staphylococcus aureus, the “antibacterial effect on S. aureus” value is given as “moderate to high”. The “antibacterial effect on P. mirabilis” value with Proteus mirabilis is “not”. Further, the “antibacterial effect on E. coli” value in the data set on E. coli is “moderate to high”. Besides, the “antibacterial effect on Klebsiella” value in the data set with Klebsiella was “moderate to high”.
